Where two headings read alike, the source gives them in different places.
Tests used:
DPPH antioxidant = conditions: for IC50: read-out: IC50 (Antioxidant), DPPH assay
COX-2 = biological target: T1, COX-2 (Homo sapiens, UniProt P35354); test: biochemical; conditions: for COX-2 selectivity: selectivity index = IC50 COX-1 / IC50 COX-2
T1 sequence (P35354 18-604): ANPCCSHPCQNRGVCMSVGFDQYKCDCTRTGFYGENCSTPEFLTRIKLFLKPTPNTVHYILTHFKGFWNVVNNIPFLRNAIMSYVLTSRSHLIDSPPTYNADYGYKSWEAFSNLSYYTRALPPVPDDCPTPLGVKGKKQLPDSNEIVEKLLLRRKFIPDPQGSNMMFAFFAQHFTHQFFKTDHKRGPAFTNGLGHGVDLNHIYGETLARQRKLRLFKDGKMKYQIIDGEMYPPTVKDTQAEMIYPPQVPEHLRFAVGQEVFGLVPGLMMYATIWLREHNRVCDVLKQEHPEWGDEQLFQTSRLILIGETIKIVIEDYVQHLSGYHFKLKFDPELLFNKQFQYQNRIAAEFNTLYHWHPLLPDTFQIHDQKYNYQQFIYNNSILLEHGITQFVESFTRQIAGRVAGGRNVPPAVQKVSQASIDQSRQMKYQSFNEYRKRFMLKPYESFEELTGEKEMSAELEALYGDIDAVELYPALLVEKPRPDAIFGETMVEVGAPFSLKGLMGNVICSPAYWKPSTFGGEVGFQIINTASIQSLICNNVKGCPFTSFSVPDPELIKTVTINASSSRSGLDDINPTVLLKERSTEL

Hep G2 cells = test: Anticancer test; type: cell-based; conditions: for IC50: read-out: IC50 (Hep G2)
COX-1 = COX-1 (Homo sapiens, UniProt P23219); test: biochemical
COX-1, sequence (P23219 24-599): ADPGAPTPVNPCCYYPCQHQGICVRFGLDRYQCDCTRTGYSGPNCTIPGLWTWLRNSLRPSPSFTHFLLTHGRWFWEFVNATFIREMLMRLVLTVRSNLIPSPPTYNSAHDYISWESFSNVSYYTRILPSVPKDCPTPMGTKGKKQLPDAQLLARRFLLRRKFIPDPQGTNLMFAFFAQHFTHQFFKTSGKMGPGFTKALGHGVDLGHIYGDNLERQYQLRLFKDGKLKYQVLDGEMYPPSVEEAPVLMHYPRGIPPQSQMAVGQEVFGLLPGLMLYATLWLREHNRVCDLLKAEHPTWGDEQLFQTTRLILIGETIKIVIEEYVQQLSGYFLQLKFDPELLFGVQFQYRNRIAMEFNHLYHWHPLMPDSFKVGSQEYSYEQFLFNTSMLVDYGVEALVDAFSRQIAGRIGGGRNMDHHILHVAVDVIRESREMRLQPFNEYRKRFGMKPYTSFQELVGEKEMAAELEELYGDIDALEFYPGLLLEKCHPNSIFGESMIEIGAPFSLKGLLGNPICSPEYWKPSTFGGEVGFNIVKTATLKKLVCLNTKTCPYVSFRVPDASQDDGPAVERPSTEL

HeLa cells = test: Anticancer test; type: cell-based; conditions: for IC50: read-out: IC50 (Hela Cells)
Caco-2 cells = test: Anticancer test; type: cell-based; conditions: for IC50: read-out: IC50 (Caco-2 Cells)
[1] = cited from earlier work
[2] = cited from earlier work; remark: listed apart in the source
[3] = read-out: COX-2 IC50, human COX-2, ELISA kit
[4] = Caco-2 cells, MTS, 48 h, concentration range 100-20,000 nM
[5] = Hep G2 cells, MTS, 48 h, concentration range 100-20,000 nM
[6] = read-out: COX-1 IC50, human COX-1, ELISA kit

OC1(Cc2ccccc2)c2ccccc2Sc2ccccc21 [Compound 2, 9-Benzyl-9H-thioxanthen-9-ol]
percentage inhibition of DPPH (DPPH antioxidant; conc 1 μg/mL): 0.26 ± 0.01%
percentage inhibition of DPPH (DPPH antioxidant; conc 2 μg/mL): 0.26 ± 0.03%
percentage inhibition of DPPH (DPPH antioxidant; conc 3 μg/mL): 0.33 ± 0.04%
percentage inhibition of DPPH (DPPH antioxidant; conc 5 μg/mL): 0.33 ± 0.01%
percentage inhibition of DPPH (DPPH antioxidant; conc 7 μg/mL): 26.00 ± 7.20%
percentage inhibition of DPPH (DPPH antioxidant; conc 10 μg/mL): 27.00 ± 1.03%
percentage inhibition of DPPH (DPPH antioxidant; conc 20 μg/mL): 28.00 ± 2.14%
percentage inhibition of DPPH (DPPH antioxidant; conc 30 μg/mL): 29.00 ± 1.15%
percentage inhibition of DPPH (DPPH antioxidant; conc 50 μg/mL): 32.00 ± 3.75%
IC50 (COX-2): 7.2 ± 0.58 nM
COX-2 selectivity (COX-2): 0.78
IC50 (Hep G2 cells; Homo sapiens, HepG2, 48 h): 161 ± 41 nM
inhibition at 0.2 µM (Hep G2 cells; Homo sapiens, HepG2, read-out: inhibition against Hep G2 cells): 100%
IC50 (COX-1): 5.63 ± 0.74 nM

Cc1c(C)c2c(c(C)c1O)CCC(C)(C(=O)O)O2 (stereo not drawn) [Trolox, reference compound]
percentage inhibition of DPPH (DPPH antioxidant; conc 1 μg/mL): 37 ± 2.21%
percentage inhibition of DPPH (DPPH antioxidant; conc 2 μg/mL): 54 ± 3.42%
percentage inhibition of DPPH (DPPH antioxidant; conc 3 μg/mL): 81 ± 4.25%
percentage inhibition of DPPH (DPPH antioxidant; conc 5 μg/mL): 86 ± 5.33%
percentage inhibition of DPPH (DPPH antioxidant; conc 7 μg/mL): 91 ± 7.52%
percentage inhibition of DPPH (DPPH antioxidant; conc 10 μg/mL): 92 ± 10.71%
percentage inhibition of DPPH (DPPH antioxidant; conc 20 μg/mL): 93 ± 13.90%
percentage inhibition of DPPH (DPPH antioxidant; conc 30 μg/mL): 94 ± 10.89%
percentage inhibition of DPPH (DPPH antioxidant; conc 50 μg/mL): 94.5 ± 12.64%
IC50 (DPPH antioxidant): 6070 ± 800 nM

OC1(Cc2ccccc2)c2ccccc2Oc2ccccc21 [Compound 1, 9-Benzyl-9H-xanthen-9-ol]
IC50 (HeLa cells; Homo sapiens, HeLa, 48 h): 213 nM
inhibition at 0.2 µM (HeLa cells; Homo sapiens, HeLa, read-out: inhibition against HeLa cells): 96%
percentage inhibition of DPPH (DPPH antioxidant; conc 1 μg/mL): 0.31 ± 0.02%
percentage inhibition of DPPH (DPPH antioxidant; conc 2 μg/mL): 0.36 ± 0.02%
percentage inhibition of DPPH (DPPH antioxidant; conc 3 μg/mL): 0.36 ± 0.01%
percentage inhibition of DPPH (DPPH antioxidant; conc 5 μg/mL): 0.31 ± 0.01%
percentage inhibition of DPPH (DPPH antioxidant; conc 7 μg/mL): 36.40 ± 4.11%
percentage inhibition of DPPH (DPPH antioxidant; conc 10 μg/mL): 36.40 ± 3.31%
percentage inhibition of DPPH (DPPH antioxidant; conc 20 μg/mL): 40.20 ± 5.21%
percentage inhibition of DPPH (DPPH antioxidant; conc 30 μg/mL): 35.50 ± 1.01%
percentage inhibition of DPPH (DPPH antioxidant; conc 50 μg/mL): 35.10 ± 3.31%
inhibition at 0.2 µM (Caco-2 cells; Homo sapiens, Caco-2, read-out: percentage inhibition against Caco-2 cells): 96%

9-Phenyl-9H-thioxanthen-9-ol [Compound 3]
percentage inhibition of DPPH (DPPH antioxidant; conc 1 μg/mL): 0.14 ± 0.02%
percentage inhibition of DPPH (DPPH antioxidant; conc 2 μg/mL): 0.15 ± 0.01%
percentage inhibition of DPPH (DPPH antioxidant; conc 3 μg/mL): 0.15 ± 0.03%
percentage inhibition of DPPH (DPPH antioxidant; conc 5 μg/mL): 0.29 ± 0.01%
percentage inhibition of DPPH (DPPH antioxidant; conc 7 μg/mL): 18.20 ± 1.40%
percentage inhibition of DPPH (DPPH antioxidant; conc 10 μg/mL): 18.00 ± 2.37%
percentage inhibition of DPPH (DPPH antioxidant; conc 20 μg/mL): 15.60 ± 2.01%
percentage inhibition of DPPH (DPPH antioxidant; conc 30 μg/mL): 19.90 ± 1.0%
percentage inhibition of DPPH (DPPH antioxidant; conc 50 μg/mL): 20.00 ± 3.12%
IC50 (COX-2; [3]): 7.69 ± 0.55 nM
COX-2 selectivity (COX-2): 1.67
IC50 (Caco-2 cells; [4]): 9.6 ± 1.1 nM
IC50 (Hep G2 cells; [5]): 438 ± 33 nM
IC50 (COX-1; [6]): 12.8 ± 0.63 nM

9-Phenyl-9H-xanthen-9-ol [Compound 4]
inhibition against HeLa cells (HeLa cells; at 0.2 μM): 98%
percentage inhibition of DPPH (DPPH antioxidant; conc 1 μg/mL): 10 ± 0.01%
percentage inhibition of DPPH (DPPH antioxidant; conc 2 μg/mL): 16.0 ± 0.02%
percentage inhibition of DPPH (DPPH antioxidant; conc 3 μg/mL): 27.0 ± 0.01%
percentage inhibition of DPPH (DPPH antioxidant; conc 5 μg/mL): 33.0 ± 1.21%
percentage inhibition of DPPH (DPPH antioxidant; conc 7 μg/mL): 33.0 ± 2.13%
percentage inhibition of DPPH (DPPH antioxidant; conc 10 μg/mL): 35.0 ± 2.31%
percentage inhibition of DPPH (DPPH antioxidant; conc 20 μg/mL): 35.0 ± 3.31%
percentage inhibition of DPPH (DPPH antioxidant; conc 30 μg/mL): 39.0 ± 5.51%
percentage inhibition of DPPH (DPPH antioxidant; conc 50 μg/mL): 39.4 ± 2.44%
IC50 (DPPH antioxidant): 15400 ± 6000 nM
IC50 (COX-2; [3]): 14 ± 1.7 nM
percentage inhibition against Caco-2 cells (Caco-2 cells; at 0.2 μM): 98%
IC50 (Caco-2 cells; [4]): 24.6 ± 8 nM
inhibition against Hep G2 cells (Hep G2 cells; at 0.2 μM): 100%
IC50 (Hep G2 cells; [5]): 400 ± 56 nM
IC50 (COX-1; [6]): 6.52 ± 0.85 nM

N[C@@H](CSC1(c2ccccc2)c2ccccc2Sc2ccccc21)C(=O)O [Compound 7, S-(9-phenyl-9H-thioxanthen-9-yl)-L-cysteine]
IC50 (Hela Cells) (HeLa cells; HeLa cells, MTS, 48 h, concentration range 100-20,000 nM): no activity
percentage inhibition of DPPH (DPPH antioxidant; conc 1 μg/mL): 22.0 ± 3.31%
percentage inhibition of DPPH (DPPH antioxidant; conc 2 μg/mL): 22.0 ± 3.11%
percentage inhibition of DPPH (DPPH antioxidant; conc 3 μg/mL): 22.0 ± 2.22%
percentage inhibition of DPPH (DPPH antioxidant; conc 5 μg/mL): 29.0 ± 4.22%
percentage inhibition of DPPH (DPPH antioxidant; conc 7 μg/mL): 22.0 ± 1.22%
percentage inhibition of DPPH (DPPH antioxidant; conc 10 μg/mL): 26.0 ± 3.44%
percentage inhibition of DPPH (DPPH antioxidant; conc 20 μg/mL): 23.0 ± 1.11%
percentage inhibition of DPPH (DPPH antioxidant; conc 30 μg/mL): 23.0 ± 1.21%
percentage inhibition of DPPH (DPPH antioxidant; conc 50 μg/mL): 23.0 ± 3.10%
IC50 (COX-2): 4.37 ± 0.78 nM
COX-2 selectivity (COX-2; listed as comp (7)): 3.78
IC50 (Hep G2) (Hep G2 cells; [5]): did not exhibit any inhibition
IC50 (COX-1): 16.7 ± 0.84 nM

N[C@@H](CSC(c1ccccc1)(c1ccccc1)c1ccccc1)C(=O)O [STLC, S-trityl-L-cysteine]
water solubility [1]: poor
permeability [2]: poor

N[C@@H](CSC1(Cc2ccccc2)c2ccccc2Oc2ccccc21)C(=O)O [Compound 5, S-(9-benzyl-9H-xanthen-9-yl)-L-cysteine]
percentage inhibition of DPPH (DPPH antioxidant; conc 1 μg/mL): 5.0 ± 0.01%
percentage inhibition of DPPH (DPPH antioxidant; conc 2 μg/mL): 6.0 ± 0.02%
percentage inhibition of DPPH (DPPH antioxidant; conc 3 μg/mL): 7.0 ± 0.01%
percentage inhibition of DPPH (DPPH antioxidant; conc 5 μg/mL): 7.0 ± 0.51%
percentage inhibition of DPPH (DPPH antioxidant; conc 7 μg/mL): 7.0 ± 0.67%
percentage inhibition of DPPH (DPPH antioxidant; conc 10 μg/mL): 7.0 ± 0.35%
percentage inhibition of DPPH (DPPH antioxidant; conc 20 μg/mL): 11.4 ± 1.01%
percentage inhibition of DPPH (DPPH antioxidant; conc 30 μg/mL): 11.4 ± 2.10%
percentage inhibition of DPPH (DPPH antioxidant; conc 50 μg/mL): 12.0 ± 1.33%

N[C@@H](CSC1(c2ccccc2)c2ccccc2Oc2ccccc21)C(=O)O [Compound 6, S-(9-phenyl-9H-xanthen-9-yl)-L-cysteine]
percentage inhibition of DPPH (DPPH antioxidant; conc 1 μg/mL): 18.0 ± 1.02%
percentage inhibition of DPPH (DPPH antioxidant; conc 2 μg/mL): 18.0 ± 2.03%
percentage inhibition of DPPH (DPPH antioxidant; conc 3 μg/mL): 22.0 ± 1.01%
percentage inhibition of DPPH (DPPH antioxidant; conc 5 μg/mL): 28.0 ± 0.01%
percentage inhibition of DPPH (DPPH antioxidant; conc 7 μg/mL): 28.0 ± 0.01%
percentage inhibition of DPPH (DPPH antioxidant; conc 10 μg/mL): 30.0 ± 0.01%
percentage inhibition of DPPH (DPPH antioxidant; conc 20 μg/mL): 30.0 ± 0.01%
percentage inhibition of DPPH (DPPH antioxidant; conc 30 μg/mL): 30.0 ± 0.01%
percentage inhibition of DPPH (DPPH antioxidant; conc 50 μg/mL): 30.0 ± 0.01%
IC50 (COX-2): 130 ± 1.71 nM
COX-2 selectivity (COX-2): 0.33
IC50 (Hep G2) (Hep G2 cells; [5]): did not exhibit any inhibition
IC50 (COX-1): 42.4 ± 0.58 nM

COc1cccc2c1C(=O)c1c(O)c3c(c(O)c1C2=O)C[C@@](O)(C(=O)CO)C[C@@H]3O[C@H]1C[C@H](N)[C@H](O)[C@H](C)O1 [doxorubicin, reference compound]
IC50 (HeLa cells; Homo sapiens, HeLa, 48 h): 110 ± 15 nM
IC50 (Caco-2 cells; Homo sapiens, Caco-2, 48 h): 497 ± 0.36 nM
IC50 (Hep G2 cells; Homo sapiens, HepG2, 48 h): 1060 ± 43 nM

Source: publication PMC10586285 (ACS Omega, 2023)
